Test results as given in patent publication US20230095520A1, “PHARMACEUTICAL COMPOSITION FOR PREVENTING OR TREATING CANCER COMPRISING AZOLE DERIVATIVES OR PHARMACEUTICALLY ACCEPTABLE SALT THEREOF” (Yungjin Pharm. Co., Ltd., priority 2020, published 2023).

Tests used:
Test in all cases: Cancer cell proliferation GI50 (CCK-8)
Format in all cases: cell-based
MEG-01 = settings: Homo sapiens, MEG-01, chronic myeloid leukemia, 72 hours
Procedure: (§1) In this example, in order to confirm the proliferation inhibitory effect on various cancer cells, Compound 121 was tested as follows.
(§2) The cells were cultured with a culture medium shown in Table 9 below at 37° C. in a humidified condition in the presence of 5% CO2. Each cell cultured in a 96-well cell culture plate was treated with the compound of the present invention and cultured for 72 hours.

RCH-ACV = settings: B cell acute lymphocytic leukemia, 72 hours
Procedure: as §1, §2

HCC1937 = settings: Homo sapiens, HCC1937, breast cancer, 72 hours
Procedure: as §1, §2

MOLM/AZA-1 = settings: MOLM/AZA-1, acute myeloid leukemia, 72 hours
Procedure: as §1, §2

KU-812 = settings: Homo sapiens, KU812, KU-812, chronic myeloid leukemia, 72 hours
Procedure: as §1, §2

OVCAR-3 = settings: Homo sapiens, OVCAR-3, ovarian cancer, 72 hours
Procedure: as §1, §2

MOLM-13 = settings: Homo sapiens, MOLM-13, acute myeloid leukemia (AML), 72 hours
Procedure: as §1, §2

NB4 = settings: Homo sapiens, NB-4, NB4, acute promyelocytic leukemia, 72 hours
Procedure: as §1, §2

MCF-7 = settings: Homo sapiens, MCF7, MCF-7, breast cancer, 72 hours
Procedure: as §1, §2

NALM-20 = settings: NALM-20, B cell acute lymphocytic leukemia, 72 hours
Procedure: as §1, §2

THP-1 = settings: Homo sapiens, THP-1, acute myeloid leukemia, 72 hours
Procedure: as §1, §2

CCRF-CEM = settings: Homo sapiens, acute lymphocytic leukemia, 72 hours
Procedure: as §1, §2

U937 = settings: Homo sapiens, U-937, U937, acute myeloid leukemia, 72 hours
Procedure: as §1, §2

T47D = settings: Homo sapiens, breast cancer, 72 hours
Procedure: as §1, §2

SR = settings: Homo sapiens, immunoblastic large cell lymphoma, 72 hours
Procedure: as §1, §2

HeLa = settings: Homo sapiens, cervical cancer, 72 hours
Procedure: as §1, §2

DAUDI = settings: Homo sapiens, Burkitt lymphoma, 72 hours
Procedure: as §1, §2

DU145 = settings: Homo sapiens, DU-145, DU145, prostate cancer, 72 hours
Procedure: as §1, §2

BDCM = settings: acute myeloid leukemia, 72 hours
Procedure: as §1, §2

RPMI-8226 = settings: Homo sapiens, RPMI-8226, multiple myeloma, 72 hours
Procedure: as §1, §2

MV-4-11 = settings: Homo sapiens, MV4-11, MV-4-11, acute myeloid leukemia, 72 hours
Procedure: as §1, §2

JURKAT = settings: Homo sapiens, T cell acute lymphocytic leukemia, 72 hours
Procedure: as §1, §2

HCC70 = settings: Homo sapiens, HCC70, breast cancer, 72 hours
Procedure: as §1, §2

SK-BR-3 = settings: Homo sapiens, SK-BR-3, breast cancer, 72 hours
Procedure: as §1, §2

TOM-1 = settings: TOM-1, B cell acute lymphocytic leukemia, 72 hours
Procedure: as §1, §2

SKOV-3 = settings: Homo sapiens, SK-OV-3, SKOV-3, ovarian cancer, 72 hours
Procedure: as §1, §2

SKM-1 = settings: Homo sapiens, SKM-1, acute myeloid leukemia, 72 hours
Procedure: as §1, §2

A549 = settings: Homo sapiens, A549, lung cancer, 72 hours
Procedure: as §1, §2

KASUMI-2 = settings: KASUMI-2, B cell acute lymphocytic leukemia, 72 hours
Procedure: as §1, §2

K562 = settings: Homo sapiens, K562, chronic myeloid leukemia (CML), 72 hours
Procedure: as §1, §2

HCT116 = settings: Homo sapiens, HCT-116, HCT116, large intestine cancer, 72 hours
Procedure: as §1, §2

LNCaP = settings: Homo sapiens, prostate cancer, 72 hours
Procedure: as §1, §2

MOLM/CYT = settings: acute myeloid leukemia, 72 hours
Procedure: as §1, §2

BxPC-3 = settings: Homo sapiens, BxPC-3, pancreatic cancer, 72 hours
Procedure: as §1, §2

MOLM-14 = settings: Homo sapiens, MOLM-14, acute myeloid leukemia, 72 hours
Procedure: as §1, §2

KG-1 = settings: Homo sapiens, KG-1, acute myeloid leukemia, 72 hours
Procedure: as §1, §2

THP/DEC-2 = settings: THP/DEC-2, acute myeloid leukemia, 72 hours
Procedure: as §1, §2

Molecule CCc1cnc(NC(=O)[C@@H](C)c2cccc(-c3cnc(NC(=O)/C=C/CN(C)C)c(C#N)c3)c2)s1 [Compound 121, (S,E)-N-(3-cyano-5-(3-(1-((5-ethylthiazol-2-yl)amino)-1-oxopropan-2-yl)phenyl)pyridin-2-yl)-4-(dimethylamino)but-2-enamide] has a GI50 (MEG-01) of 4 nM, a GI50 (RCH-ACV) of 4.1 nM and a GI50 (HCC1937) of 14.6 nM. For the same molecule, the GI50 (MOLM/AZA-1) was 13.2 nM, the GI50 (KU-812) was 3.64 nM and the GI50 (OVCAR-3) was 4.8 nM. For the same molecule, the GI50 (MOLM-13) was 19 nM, the GI50 (NB4) was 12.9 nM and the GI50 (MCF-7) was 15.1 nM. For the same molecule, the GI50 (NALM-20) was 18.6 nM, the GI50 (THP-1) was 1.95 nM and the GI50 (CCRF-CEM) was 15.6 nM. The GI50 (U937) was 2.43 nM, the GI50 (T47D) was 19.3 nM and the GI50 (SR) was 5.83 nM. For the same molecule, the GI50 (HeLa) was 10.8 nM, the GI50 (DAUDI) was 9.15 nM and the GI50 (DU145) was 11.5 nM. It also gave a GI50 (BDCM) of 2.68 nM, a GI50 (RPMI-8226) of 16.4 nM and a GI50 (MV-4-11) of 11.8 nM. The GI50 (JURKAT) was 17.5 nM, the GI50 (HCC70) was 11.2 nM and the GI50 (SK-BR-3) was 10.6 nM. For the same molecule, the GI50 (TOM-1) was 4.36 nM, the GI50 (SKOV-3) was 9.6 nM and the GI50 (SKM-1) was 25 nM. It also gave a GI50 (A549) of 8.6 nM, a GI50 (KASUMI-2) of 6.26 nM and a GI50 (K562) of 18.9 nM. It also gave a GI50 (HCT116) of 4 nM, a GI50 (LNCaP) of 8 nM and a GI50 (MOLM/CYT) of 0.94 nM. For the same molecule, the GI50 (BxPC-3) was 6.7 nM, the GI50 (MOLM-14) was 2.77 nM and the GI50 (KG-1) was 29 nM. The GI50 (THP/DEC-2) was 3.6 nM.
